Target: plasminogen activator inhibitor 1 (PAI-1) (Homo sapiens, UniProt P05121)
Test: Bioassay for PAI-1 inhibitors (tPA amidolysis of chromogenic substrate in presence of PAI-1)
Type: biochemical
Details: inhibition of PAI-1 measured via tPA activity; 4.5 nM PAI-1, 7.5 nM tPA, 1 mM substrate H-D-Ile-Pro-Arg-pNA, TRIS buffer pH 8.4, OD 405 nm, 37° C. 60 minutes
Protocol: For the detection of the inhibitors of PAI-1, a test is run in which the activation of a specific substrate by tPA is measured in the presence of a defined amount of PAI-1 and the substance in each case to be investigated. tPA is inhibited by PAI-1. An inhibition of PAI-1 results in an increased tPA activity. The enzymatic activity of tPA is measured colorimetrically by employing a chromogenic substrate which becomes colored after amidolysis.
Reaction: The inhibition of the enzymatic activity of tPA by PAI-1 is measured by means of the amidolysis of the chromogenic substrate H-D-IIe-Pro-Arg-pNA (Chromogenix; pNA=para-nitroaniline) as the optical density (OD) at a wavelength of 405 nm.
Extracts or pure substances, for example of the spirobenzofuran lactam derivatives prepared or characterized in examples 4–10, which are present dissolved in DMSO, were diluted in a suitable manner using TRIS buffer pH 8.4.
5 μl of test substance and 5 μl of PAI-1 are preincubated at room temperature for 30 minutes. 10 μl of tPA solution and 20 μl of substrate solution are then added.
The final concentrations in the sample are 50 μM test substance, 4.5 nM PAI-1, 7.5 nM tPA and 1 mM substrate in TRIS buffer pH 8.4. Immediately after the addition of the substrate, the initial absorption is measured at 405 nm. After incubation at 37° C. for 60 minutes, the absorption is measured again.
In each case, blank samples (buffer instead of tPA), positive controls=B (buffer instead of test substances) and tPA controls=A (buffer instead of PAI-1) are co-tested.
After correction by means of the blank samples, the inhibition is determined according to the following equation: […]
The results of the assay are shown as IC50 values in Table 1.

Sequence of plasminogen activator inhibitor 1 (PAI-1) (P05121 24-402): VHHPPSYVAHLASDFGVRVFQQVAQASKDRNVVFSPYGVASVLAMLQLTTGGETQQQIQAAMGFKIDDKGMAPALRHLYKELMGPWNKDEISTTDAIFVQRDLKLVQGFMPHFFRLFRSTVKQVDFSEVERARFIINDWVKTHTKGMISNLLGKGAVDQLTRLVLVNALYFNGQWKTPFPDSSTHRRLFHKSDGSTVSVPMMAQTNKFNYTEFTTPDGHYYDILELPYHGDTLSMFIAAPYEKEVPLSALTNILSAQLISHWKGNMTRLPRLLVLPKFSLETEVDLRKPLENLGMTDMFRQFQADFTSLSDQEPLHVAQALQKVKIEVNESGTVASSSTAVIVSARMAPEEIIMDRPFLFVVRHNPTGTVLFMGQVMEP

| SMILES | IC50 |
| --- | --- |
| CC1CCC2C(C)(C)C(O)CCC2(C)C12Cc1c(O)cc3c(c1O2)CN(C(Cc1ccccc1)C(=O)O)C3=O (stereo not drawn) [Compound of the formula (II)] | 41 µM |
| CCC(C)C(C(=O)O)N1Cc2c(cc(O)c3c2OC2(C3)C(C)CCC3C(C)(C)C(O)CCC32C)C1=O (stereo not drawn) [Compound of the formula (III)] | 66 µM |
| CC(C)CC(C(=O)O)N1Cc2c(cc(O)c3c2OC2(C3)C(C)CCC3C(C)(C)C(O)CCC32C)C1=O (stereo not drawn) [Compound of the formula (IV)] | 35 µM |
